Reference: ChEMBL document CHEMBL4196033, “Potent hydrazone derivatives targeting esophageal cancer cells” (Eur J Med Chem, 2018)
The source made the active and inactive calls. The rule behind the calls is not given here.

Key:
EC9706 [1] = assay: Induction of apoptosis in human EC9706 cells assessed as late apoptotic cells at 8 uM after 48 hrs in presence of caspase inhibitor Z-VAD-FMK by Annexin V-FITC/propidium iodide staining based flow cytometry (reference value: 1.27%); type: functional
ECa-109 cell line [2] = assay: Induction of apoptosis in human EC109 cells assessed as decrease in Bcl2 protein expression after 48 hrs by Western blot analysis; type: functional, cell-based
ECa-109 cell line [3] = assay: Induction of apoptosis in human EC109 cells after 48 hrs by Annexin V-FITC/propidium iodide staining based flow cytometry; type: functional, cell-based
ECa-109 cell line [4] = assay: Induction of apoptosis in human EC109 cells assessed as late apoptotic cells at 4 uM after 48 hrs in presence of caspase inhibitor Z-VAD-FMK by Annexin V-FITC/propidium iodide staining based flow cytometry (reference value: 0.01%); type: functional
ECa-109 cell line [5] = assay: Induction of morphological changes in human EC109 cells assessed as apoptotic body formation after 48 hrs by Hoechst 33342 staining based fluorescence microscopic method; type: functional, cell-based
EC9706 [6] = assay: Induction of apoptosis in human EC9706 cells assessed as late apoptotic cells at 2 uM after 48 hrs by Annexin V-FITC/propidium iodide staining based flow cytometry (reference value: 1.29 to 1.99%); type: functional
ECa-109 cell line [7] = assay: Induction of ROS generation in human EC109 cells at 2 uM after 24 hrs by DCFH-DA staining based flow cytometry relative to control; type: functional
EC9706 [8] = assay: Induction of apoptosis in human EC9706 cells assessed as live cells at 2 uM after 48 hrs by Annexin V-FITC/propidium iodide staining based flow cytometry (reference value: 85.5 to 96%); type: functional
ECa-109 cell line [9] = assay: Effect on Prxs-5 protein expression in human EC109 cells at 2 to 8 uM after 48 hrs by Western blot analysis; type: functional, cell-based
ECa-109 cell line [10] = assay: Upregulation of p27 protein expression in human EC109 cells at 4 uM after 24 to 48 hrs by Western blot analysis relative to control; type: functional
ECa-109 cell line [11] = assay: Antiproliferative activity against human EC109 cells after 72 hrs by MTT assay; type: functional, cell-based; settings: ECa-109, 72 h
ECa-109 cell line [12] = assay: Induction of apoptosis in human EC109 cells assessed as late apoptotic cells at 2 uM after 48 hrs by Annexin V-FITC/propidium iodide staining based flow cytometry (reference value: 0.2 to 1.74%); type: functional
ECa-109 cell line [13] = assay: Antiproliferative activity against human EC109 cells after 24 hrs by MTT assay; type: functional, cell-based; settings: ECa-109, 24 h
ECa-109 cell line [14] = assay: Induction of apoptosis in human EC109 cells assessed as early apoptotic cells at 8 uM after 48 hrs by Annexin V-FITC/propidium iodide staining based flow cytometry (reference value: 0.43 to 1.15%); type: functional
ECa-109 cell line [15] = assay: Induction of apoptosis in human EC109 cells assessed as live cells at 8 uM after 48 hrs in presence of caspase inhibitor Z-VAD-FMK by Annexin V-FITC/propidium iodide staining based flow cytometry (reference value: 96.2%); type: functional
SMMC-7721 = assay: Antiproliferative activity against human SMMC7721 cells after 72 hrs by MTT assay; type: functional, cell-based; settings: SMMC-7721, 72 h
EC9706 [16] = assay: Induction of apoptosis in human EC9706 cells assessed as late apoptotic cells at 4 uM after 48 hrs by Annexin V-FITC/propidium iodide staining based flow cytometry (reference value: 1.29 to 1.99%); type: functional
EC9706 [17] = assay: Upregulation of p27 protein expression in human EC9706 cells at 2 uM after 24 to 48 hrs by Western blot analysis relative to control; type: functional
ECa-109 cell line [18] = assay: Induction of apoptosis in human EC109 cells assessed as late apoptotic cells at 8 uM after 48 hrs by Annexin V-FITC/propidium iodide staining based flow cytometry (reference value: 0.2 to 1.74%); type: functional
EC9706 [19] = assay: Cell cycle arrest in human EC9706 cells assessed as increase in S phase population at 2 uM after 24 hrs by propidium iodide staining based flow cytometry relative to control; type: functional
ECa-109 cell line [20] = assay: Induction of apoptosis in human EC109 cells assessed as early apoptotic cells at 8 uM after 48 hrs in presence of caspase inhibitor Z-VAD-FMK by Annexin V-FITC/propidium iodide staining based flow cytometry (reference value: 0.52%); type: functional
EC9706 [21] = assay: Induction of apoptosis in human EC9706 cells assessed as early apoptotic cells at 8 uM after 48 hrs by Annexin V-FITC/propidium iodide staining based flow cytometry (reference value: 0.68 to 1.58%); type: functional
[22] = Selectivity index, ratio of IC50 for antiproliferative activity against human GES-1 cells after 72 hrs to IC50 for antiproliferative activity against human MGC803 cells after 72 hrs; type: toxicity, cell-based; settings: GES-1 cells versus MGC803 cells, read-out: Ratio IC50
EC9706 [23] = assay: Induction of apoptosis in human EC9706 cells assessed as increase in cleaved caspase-3 protein expression after 48 hrs by Western blot analysis; type: functional, cell-based
EC9706 [24] = assay: Cell cycle arrest in human EC9706 cells assessed as increase in G0/G1 phase population at 4 uM after 24 hrs by propidium iodide staining based flow cytometry relative to control; type: functional
EC9706 [25] = assay: Induction of morphological changes in human EC9706 cells assessed as apoptotic body formation after 48 hrs by Hoechst 33342 staining based fluorescence microscopic method; type: functional, cell-based
Mus musculus [26] = assay: Acute toxicity in C57BL/6 mouse assessed as change in physical phenotype at 2 g/kg, ig measured for 2 weeks; type: organism-based; settings: in vivo, po, 2000 mg/kg, 336 h
ECa-109 cell line [27] = assay: Effect on Prxs-4 protein expression in human EC109 cells at 2 to 8 uM after 48 hrs by Western blot analysis; type: functional, cell-based
ECa-109 cell line [28] = assay: Induction of apoptosis in human EC109 cells assessed as increase in cleaved caspase-3 protein expression after 48 hrs by Western blot analysis; type: functional, cell-based
EC9706 [29] = assay: Induction of apoptosis in human EC9706 cells assessed as necrotic cells at 8 uM after 48 hrs in presence of caspase inhibitor Z-VAD-FMK by Annexin V-FITC/propidium iodide staining based flow cytometry (reference value: 1.2%); type: functional
ECa-109 cell line [30] = assay: Induction of apoptosis in human EC109 cells assessed as increase in cleaved PARP protein expression after 48 hrs by Western blot analysis; type: functional, cell-based
EC9706 [31] = assay: Induction of apoptosis in human EC9706 cells assessed as increase in Bax protein expression after 48 hrs by Western blot analysis; type: functional, cell-based
Mus musculus [32] = assay: Acute toxicity in C57BL/6 mouse assessed as mortality at 2 g/kg, ig measured for 2 weeks; type: organism-based; settings: in vivo, po, 2000 mg/kg, 336 h
EC9706 [33] = assay: Antiproliferative activity against human EC9706 cells after 48 hrs by MTT assay; type: functional, cell-based; settings: EC9706, 48 h
ECa-109 cell line [34] = assay: Induction of apoptosis in human EC109 cells assessed as necrotic cells at 4 uM after 48 hrs in presence of caspase inhibitor Z-VAD-FMK by Annexin V-FITC/propidium iodide staining based flow cytometry (reference value: 2.37%); type: functional
ECa-109 cell line [35] = assay: Induction of apoptosis in human EC109 cells assessed as decrease in Bid protein expression at 2 to 8 uM after 48 hrs by Western blot analysis; type: functional, cell-based
EC9706 [36] = assay: Antiproliferative activity against human EC9706 cells after 72 hrs by MTT assay; type: functional, cell-based; settings: EC9706, 72 h

## COc1ccc(/C=N/NC(=O)c2cccc(S(=O)(=O)N3CCOCC3)c2)c(O)c1
EC9706 [1]
  Activity: 25%
ECa-109 cell line [2]
  Activity: Dose-dependent effect
ECa-109 cell line [3]
  Activity: Dose-dependent effect
ECa-109 cell line [4]
  Activity: 21.1%
ECa-109 cell line [5]
  Activity: Dose-dependent effect
EC9706 [6]
  Activity: 6.25%
ECa-109 cell line [7]
  fold change (FC): 1.81
EC9706 [8]
  Activity: 82.8%
ECa-109 cell line [9]
  Activity: Active
ECa-109 cell line [10]
  fold change (FC): 1.4
ECa-109 cell line [11]
  IC50: 2.79 µM
ECa-109 cell line [12]
  Activity: 6.84%
ECa-109 cell line [13]
  IC50: > 20 µM
ECa-109 cell line [14]
  Activity: 18.7 - 25%
ECa-109 cell line [15]
  Activity: 26.9%
SMMC-7721
  IC50: 3.95 µM
EC9706 [16]
  Activity: 18.2 - 21.6%
EC9706 [17]
  fold change (FC): 1.3
ECa-109 cell line [18]
  Activity: 42.4 - 43%
EC9706 [19]
  fold change (FC): 1.54
ECa-109 cell line [20]
  Activity: 14.1%
EC9706 [21]
  Activity: 8.64 - 26%
[22]
  selectivity ratio at 72 h: 7.2
EC9706 [23]
  Activity: Dose-dependent effect
EC9706 [24]
  fold change (FC): 1.22
EC9706 [25]
  Activity: Dose-dependent effect
Mus musculus [26]
  Activity: Non-Toxic
ECa-109 cell line [27]
  Activity: Active
ECa-109 cell line [28]
  Activity: Dose-dependent effect
EC9706 [29]
  Activity: 17%
ECa-109 cell line [30]
  Activity: Dose-dependent effect
EC9706 [31]
  Activity: Dose-dependent effect
Mus musculus [32]
  Activity: Non-Toxic
EC9706 [33]
  IC50: 7.51 µM
ECa-109 cell line [34]
  Activity: 20.4%
ECa-109 cell line [35]
  Activity: Active
EC9706 [36]
  IC50: 1.09 µM
